Measurements taken from the supplement of paper PMC10307832.

Assays:
Experiment in all cases: relative viability (nuclei count vs DMSO), 5 days (fraction); higher = more cells survive
[1] = compound: C1CSC2=C(C(=O)N1)SC3=C2C=C(C=C3)O [kb NB 142-70] + CC(C)C[C@H](NC(=O)[C@H](Cc1ccccc1)NC(=O)c1cnccn1)B(O)O [Bortezomib] (partner 0.002 µM)
How it was run: (§1)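 Each reported value is a median over duplicate plates. It expresses relative viability: treated-well nuclei count divided by vehicle-well nuclei count. Lung cancer cell lines in 1536-well plates were dosed by pin tool a day after seeding, alone with one drug or with a fixed anchor-drug dose plus five library-drug doses (not always all listed) in √10 steps, and nuclei were counted after 5 days.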

[2] = compound: C1CSC2=C(C(=O)N1)SC3=C2C=C(C=C3)O [kb NB 142-70] + CS(=O)(=O)CCNCc1ccc(-c2ccc3ncnc(Nc4ccc(OCc5cccc(F)c5)c(Cl)c4)c3c2)o1 [Lapatinib] (partner 2 µM)
How it was run: as §1

[3] = compound: C1CSC2=C(C(=O)N1)SC3=C2C=C(C=C3)O [kb NB 142-70] + Cc1cc(Nc2cc(N3CCN(C)CC3)nc(Sc3ccc(NC(=O)C4CC4)cc3)n2)n[nH]1 [Tozasertib] (partner 0.1 µM)
How it was run: as §1

[4] = compound: C1CSC2=C(C(=O)N1)SC3=C2C=C(C=C3)O [kb NB 142-70] + NC(=O)Nc1cc(-c2cccc(F)c2)sc1C(=O)N[C@H]1CCCNC1 [AZD7762] (partner 0.2 µM)
How it was run: as §1

[5] = compound: C1CSC2=C(C(=O)N1)SC3=C2C=C(C=C3)O [kb NB 142-70] + O=C(c1cc(Cc2n[nH]c(=O)c3ccccc23)ccc1F)N1CCN(C(=O)C2CC2)CC1 [Olaparib] (partner 8 µM)
How it was run: as §1

[6] = compound: NCC(=O)Nc1ccc(-n2nc(C(F)(F)F)cc2-c2ccc3c(ccc4ccccc43)c2)cc1 + C[C@@H](Oc1cc(-c2cnn(C3CCNCC3)c2)cnc1N)c1c(Cl)ccc(F)c1Cl [Crizotinib] (partner 1 µM)
How it was run: as §1

Row | Cell Line | relative viability ([1]; first compound 0.1 µM) | relative viability ([1]; first compound 1 µM) | relative viability ([1]; first compound 3.162 µM) | relative viability ([2]; first compound 0.1 µM) | relative viability ([2]; first compound 1 µM) | relative viability ([2]; first compound 3.162 µM) | relative viability ([3]; first compound 0.1 µM) | relative viability ([3]; first compound 1 µM) | relative viability ([3]; first compound 3.162 µM) | relative viability ([4]; first compound 0.1 µM) | relative viability ([4]; first compound 1 µM) | relative viability ([4]; first compound 3.162 µM) | relative viability ([5]; first compound 0.1 µM) | relative viability ([5]; first compound 1 µM) | relative viability ([5]; first compound 3.162 µM) | relative viability ([6]; first compound 0.02 µM) | relative viability ([6]; first compound 0.06325 µM) | relative viability ([6]; first compound 0.2 µM) | relative viability ([6]; first compound 0.6325 µM) | relative viability ([6]; first compound 2 µM)
1 | NCI-H2126 | 1.11 | 1.14 | 1.12 | 0.818 | 0.739 | 0.783 | 0.805 | 0.858 | 0.823 | 0.925 | 1.03 | 1.08 | 0.928 | 0.899 | 0.816 | 1 | 1 | 1.05 | 1.01 | 1.04
2 | LXF-289 | 1.02 | 0.942 | 0.895 | 0.917 | 0.909 | 0.94 | 0.173 | 0.192 | 0.181 | 1.11 | 1.1 | 1.27 | 1.04 | 1.05 | 0.772 | 0.834 | 0.821 | 0.799 | 0.823 | 0.779
3 | NCI-H2405 | 0.969 | 0.993 | 1.01 | 1.11 | 1.07 | 0.896 | 0.785 | 0.695 | 0.652 | 0.792 | 0.769 | 0.609 | 0.824 | 0.895 | 0.723 | 0.916 | 0.927 | 0.914 | 0.847 | 0.881
4 | NCI-H1755 | 1.02 | 0.98 | 1 | 1.02 | 1.04 | 1.02 | 0.627 | 0.492 | 0.63 | 0.436 | 0.447 | 0.431 | 0.934 | 0.809 | 0.883 | 0.955 | 0.863 | 0.904 | 0.891 | 0.862
5 | HCC-78 | 0.486 | 0.543 | 0.556 | 0.919 | 0.941 | 0.744 | 0.389 | 0.468 | 0.411 | 0.616 | 0.629 | 0.684 | 0.791 | 0.773 | 0.83 | 0.361 | 0.363 | 0.346 | 0.337 | 0.348
6 | LOU-NH91 | 0.467 | 0.431 | 0.353 | 0.724 | 0.73 | 0.581 | 0.599 | 0.557 | 0.338 | 0.767 | 0.762 | 0.637 | 0.879 | 0.917 | 0.552 | 0.725 | 0.761 | 0.754 | 0.565 | 0.756
7 | NCI-H3122 | 1.09 | 1.06 | 1.03 | 0.872 | 1.01 | 0.947 | 0.366 | 0.459 | 0.165 | 1 | 1.03 | 1.02 | 0.648 | 0.714 | 0.793 | 0.275 | 0.287 | 0.266 | 0.289 | 0.279
8 | HCC-827 | 1.09 | 1.02 | 0.978 | 0.206 | 0.192 | 0.173 | 0.418 | 0.429 | 0.367 | 0.233 | 0.195 | 0.255 | 0.655 | 0.62 | 0.404 | 0.988 | 1.04 | 0.966 | 0.929 | 0.937
9 | NCI-H1975 | 0.33 | 0.283 | 0.153 | 0.894 | 0.881 | 0.433 | 0.787 | 0.746 | 0.28 | 0.652 | 0.748 | 0.7 | 0.81 | 0.883 | 0.35 | 0.96 | 0.954 | 0.954 | 0.906 | 0.914
10 | NCI-H1651 | 0.966 | 0.863 | 0.857 | 0.902 | 0.789 | 0.471 | 0.678 | 0.748 | 0.311 | 0.488 | 0.448 | 0.547 | 0.181 | 0.181 | 0.187 | 0.803 | 0.853 | 0.875 | 0.881 | 0.952
11 | LCLC-97TM1 | 0.853 | 0.563 | 0.123 | 0.992 | 0.685 | 1.08 | 0.197 | 0.207 | 0.149 | 0.346 | 0.231 | 0.563 | 0.404 | 0.371 | 0.198 | 0.344 | 0.34 |  | 0.348 | 0.29
12 | NCI-H727 | 0.897 | 1.1 | 1.02 | 0.808 | 1.03 | 0.905 | 0.607 | 0.541 | 0.514 | 0.531 | 0.688 | 0.769 | 0.743 | 0.592 | 0.68 | 1.03 | 0.816 | 0.897 | 0.787 | 0.899
13 | NCI-H1355 | 1.24 | 1.16 | 1.22 | 0.993 | 0.943 | 1.07 | 0.577 | 0.542 | 0.428 | 0.776 | 0.81 | 1 | 0.818 | 0.744 | 0.775 | 0.959 | 1.2 | 1.03 | 0.946 | 1.07
14 | HOP-62 | 0.919 | 1 | 0.569 | 1.07 | 0.97 | 0.974 | 0.314 | 0.315 | 0.245 | 0.691 | 1.1 | 0.764 | 0.457 | 0.39 | 0.333 | 0.579 | 0.921 | 0.942 | 0.884 | 0.927
15 | NCI-H2085 | 1 | 1 | 0.709 | 0.764 | 0.727 | 0.48 | 0.796 | 0.825 | 0.661 | 1.02 | 1.08 | 0.77 | 0.742 | 0.727 | 0.487 | 0.862 | 0.901 | 0.938 | 0.865 | 0.819
